Source: patent US6552080B1, “Fungicidal compounds having a fluorovinyl-or fluoropropenyl-oxyphenyloxime moiety and process for the preparation thereof” (Korea Research Institute of Chemical Technology, priority 1999, dated 2003)
Like-named read-outs stand apart in the source and are kept apart here.

Legend:
Erysiphae graminis = experiment: Fungicidal activity against Barley Powdery Mildew (BPM) disease; type: in vivo; details: Barley Powdery Mildew
Rhizoctonia solani AG-1 = experiment: Fungicidal activity against Rice Sheath Blight (RSB) disease; details: Rice Sheath Blight
[1] = system: Pyricularia oryzae Carvara KA301; type: in vivo; details: Rice Blast
Phytophthora infestans = type: in vivo; details: Tomato Late Blight
Botrytis cinerae = experiment: Fungicidal activity against Cucumber Gray Mold Rot (CGM) disease; type: in vivo; details: Cucumber Gray Mold Rot; concentration 50 ppm
Puccinia recondita = experiment: Fungicidal activity against Wheat Leaf Rust (WLR) disease; type: in vivo; details: Wheat Leaf Rust

SMILES	BPM (Fungicidal Activities, C.V.) (Erysiphae graminis; concentration 2 ppm) [%]	BPM (Fungicidal Activities, C.V.) (Erysiphae graminis; concentration 10 ppm) [%]	BPM (Fungicidal Activities, C.V.) (Erysiphae graminis; concentration 50 ppm) [%]	RSB (Fungicidal Activities, C.V.) (Rhizoctonia solani AG-1; concentration 2 ppm) [%]	RSB (Fungicidal Activities, C.V.) (Rhizoctonia solani AG-1; concentration 10 ppm) [%]	RSB (Fungicidal Activities, C.V.) (Rhizoctonia solani AG-1; concentration 50 ppm) [%]	RCV (Fungicidal Activities, C.V.) ([1]; concentration 2 ppm) [%]	RCV (Fungicidal Activities, C.V.) ([1]; concentration 10 ppm) [%]	RCV (Fungicidal Activities, C.V.) ([1]; concentration 50 ppm) [%]	TLB (Fungicidal Activities, C.V.) (Phytophthora infestans; concentration 50 ppm) [%]	CGM (Fungicidal Activities, C.V.) (Botrytis cinerae) [%]	WLR (Fungicidal Activities, C.V.) (Puccinia recondita; concentration 2 ppm) [%]	WLR (Fungicidal Activities, C.V.) (Puccinia recondita; concentration 10 ppm) [%]	WLR (Fungicidal Activities, C.V.) (Puccinia recondita; concentration 50 ppm) [%]	TLB (Fungicidal Activities, C.V.) (Phytophthora infestans; concentration 2 ppm) [%]
CON=C(C(=O)OC)c1ccccc1CON=C(C)c1cccc(OC(F)=Cc2cccc(C)c2)c1 [Compound 65]	99	100	100	30	60	100	100	100	100	0	71	99	100	100	–
CON=C(C(=O)OC)c1ccccc1CON=C(C)c1cccc(OC(F)=Cc2ccc(C)cc2)c1 [Compound 66]	100	100	100	20	65	100	100	100	100	0	75	99	100	100	–
CON=C(C(=O)OC)c1ccccc1CON=C(C)c1cccc(OC(F)=Cc2ccc(C)c(C)c2)c1 [Compound 67]	99	100	100	10	43	100	100	100	100	0	37	99	100	100	–
CON=C(C(=O)OC)c1ccccc1CON=C(C)c1cccc(OC(F)=Cc2cc(C)cc(C)c2)c1 [Compound 68]	100	100	100	30	70	100	100	100	100	20	56	99	100	100	–
CCc1ccc(C=C(F)Oc2cccc(C(C)=NOCc3ccccc3C(=NOC)C(=O)OC)c2)cc1 [Compound 69]	99	–	100	30	–	100	100	–	100	60	25	97	–	100	25
CCCCc1ccc(C=C(F)Oc2cccc(C(C)=NOCc3ccccc3C(=NOC)C(=O)OC)c2)cc1 [Compound 70]	83	–	100	20	–	85	99	–	100	0	50	93	–	97	12
